Test results reported in US20100189683A1, “Pulsatile Dosing of Gossypol for Treatment of Disease” (Ascenta Therapeutics, Inc., priority 2008, published 2010).

Test system: patients with advanced cancer
Assay: Phase I clinical trial, daily versus pulsatile dosing of (−)-gossypol: adverse events graded by NCI-CTCAE v3 (Daily N = 38, BID × 3 d N = 21, Weekly N = 12)
Type: in vivo, human
Experimental: A phase I clinical trial was carried out to compare the maximum tolerated dose and safety of daily (i.e., continuous) versus pulsatile (i.e., intermittent) dosing of (−)-gossypol in patients with advanced cancer. A secondary objective of this study was to identify any anti-tumor activity of (−)-gossypol. Patients were treated with increasing doses of (−)-gossypol according to the following dosing schedules: “Daily” dosing: 5 to 60 mg/day of (−)-gossypol on 21 days per 28 day cycle; “BID×3d” dosing: 30 to 80 mg BID of (−)-gossypol on 3 consecutive days (e.g., Monday-Tuesday-Wednesday) repeated every other week per 28 day cycle; and “Weekly” dosing: 80 to 200 mg of (−)-gossypol once weekly per 28 day cycle. Adverse events (AEs) were graded by NCI-CTCAE v3.

Cc1cc2c(C(C)C)c(O)c(O)c(C=O)c2c(O)c1-c1c(C)cc2c(C(C)C)c(O)c(O)c(C=O)c2c1O [(−)-gossypol]
ALT increase (Daily, Grade ¾): 5 (13) N (%)
AST increase (Daily, Grade ¾): 6 (13) N (%)
Abdominal discomfort (Daily, Grade ¾): 2 (5) N (%)
Abdominal distention (Daily, Grade ¾): 0 N (%)
Abdominal pain (Daily, Grade ¾): 1 (3) N (%)
Albumin decreased (Daily, Grade ¾): 0 N (%)
Alkaline phosphatase increase (Daily, Grade ¾): 0 N (%)
Anorexia or decreased appetite (Daily, Grade ¾): 1 (3) N (%)
Any AE (Daily, Grade ¾): 37 (98) N (%)
Back pain (Daily, Grade ¾): 0 N (%)
Constipation (Daily, Grade ¾): 0 N (%)
Cough (Daily, Grade ¾): 0 N (%)
Creatinine increased (Daily, Grade ¾): 0 N (%)
Creatinine phosphokinase increase (Daily, Grade ¾): 0 N (%)
Dehydration (Daily, Grade ¾): 2 (5) N (%)
Diarrhea (Daily, Grade ¾): 5 (13) N (%)
Dizziness (Daily, Grade ¾): 0 N (%)
Dry mouth (Daily, Grade ¾): 0 N (%)
Dysgeusia (Daily, Grade ¾): 0 N (%)
Dyspnea (Daily, Grade ¾): 3 (8) N (%)
Fatigue/Asthenia (Daily, Grade ¾): 4 (11) N (%)
Flatulence (Daily, Grade ¾): 0 N (%)
Headache (Daily, Grade ¾): 0 N (%)
Hepatic encephalopathy (Daily, Grade ¾): 0 N (%)
Hyperbilirubinaemia (Daily, Grade ¾): 1 (3) N (%)
Hyperkalemia (Daily, Grade ¾): 0 N (%)
Hypocalcemia (Daily, Grade ¾): 2 (5) N (%)
Hypokalemia (Daily, Grade ¾): 3 (8) N (%)
Hyponatremia (Daily, Grade ¾): 1 (3) N (%)
Infection (Daily, Grade ¾): 1 (3) N (%)
Insomnia (Daily, Grade ¾): 0 N (%)
Mental status changes (Daily, Grade ¾): 1 (3) N (%)
Nausea (Daily, Grade ¾): 5 (13) N (%)
Pain (Daily, Grade ¾): 0 N (%)
Pancreatitis (Daily, Grade ¾): 0 N (%)
Peripheral edema (Daily, Grade ¾): 0 N (%)
Pleural Effusion (Daily, Grade ¾): 2 (5) N (%)
Pneumatosis intestinalis (Daily, Grade ¾): 0 N (%)
Pneumonia (Daily, Grade ¾): 1 (3) N (%)
Proteinurea (Daily, Grade ¾): 0 N (%)
Pyrexia (Daily, Grade ¾): 1 (3) N (%)
Renal Failure (Daily, Grade ¾): 0 N (%)
Sinusitis (Daily, Grade ¾): 0 N (%)
Small intestinal obstruction (ileus) (Daily, Grade ¾): 4 (11) N (%)
Troponin I or T increased (Daily, Grade ¾): 1 (3) N (%)
Urinary Tract Infection (Daily, Grade ¾): 0 N (%)
Vomiting (Daily, Grade ¾): 7 (18) N (%)
Weight decreased (Daily, Grade ¾): 0 N (%)
White blood cells increased (Daily, Grade ¾): 0 N (%)
ALT increase (Weekly, Grade ½): 3 (25) N (%)
AST increase (Weekly, Grade ½): 1 (8) N (%)
Abdominal discomfort (Weekly, Grade ½): 0 N (%)
Abdominal distention (Weekly, Grade ½): 3 (25) N (%)
Abdominal pain (Weekly, Grade ½): 2 (17) N (%)
Albumin decreased (Weekly, Grade ½): 0 N (%)
Alkaline phosphatase increase (Weekly, Grade ½): 2 (17) N (%)
Anorexia or decreased appetite (Weekly, Grade ½): 7 (58) N (%)
Any AE (Weekly, Grade ½): 10 (83) N (%)
Back pain (Weekly, Grade ½): 1 (8) N (%)
Constipation (Weekly, Grade ½): 4 (33) N (%)
Cough (Weekly, Grade ½): 0 N (%)
Creatinine increased (Weekly, Grade ½): 2 (17) N (%)
Creatinine phosphokinase increase (Weekly, Grade ½): 0 N (%)
Dehydration (Weekly, Grade ½): 2 (17) N (%)
Diarrhea (Weekly, Grade ½): 0 N (%)
Dizziness (Weekly, Grade ½): 2 (17) N (%)
Dry mouth (Weekly, Grade ½): 1 (8) N (%)
Dysgeusia (Weekly, Grade ½): 2 (17) N (%)
Dyspnea (Weekly, Grade ½): 1 (8) N (%)
Fatigue/Asthenia (Weekly, Grade ½): 8 (67) N (%)
Flatulence (Weekly, Grade ½): 1 (8) N (%)
Headache (Weekly, Grade ½): 1 (8) N (%)
Hepatic encephalopathy (Weekly, Grade ½): 0 N (%)
Hyperbilirubinaemia (Weekly, Grade ½): 2 (17) N (%)
Hyperkalemia (Weekly, Grade ½): 0 N (%)
Hypocalcemia (Weekly, Grade ½): 2 (17) N (%)
Hypokalemia (Weekly, Grade ½): 2 (17) N (%)
Hyponatremia (Weekly, Grade ½): 0 N (%)
Infection (Weekly, Grade ½): 0 N (%)
Insomnia (Weekly, Grade ½): 3 (25) N (%)
Mental status changes (Weekly, Grade ½): 0 N (%)
Nausea (Weekly, Grade ½): 2 (17) N (%)
Pain (Weekly, Grade ½): 0 N (%)
Pancreatitis (Weekly, Grade ½): 0 N (%)
Peripheral edema (Weekly, Grade ½): 3 (25) N (%)
Pleural Effusion (Weekly, Grade ½): 0 N (%)
Pneumatosis intestinalis (Weekly, Grade ½): 0 N (%)
Pneumonia (Weekly, Grade ½): 0 N (%)
Proteinurea (Weekly, Grade ½): 2 (17) N (%)
Pyrexia (Weekly, Grade ½): 0 N (%)
Renal Failure (Weekly, Grade ½): 1 (8) N (%)
Sinusitis (Weekly, Grade ½): 0 N (%)
Small intestinal obstruction (ileus) (Weekly, Grade ½): 0 N (%)
Troponin I or T increased (Weekly, Grade ½): 1 (8) N (%)
Urinary Tract Infection (Weekly, Grade ½): 2 (17) N (%)
Vomiting (Weekly, Grade ½): 0 N (%)
Weight decreased (Weekly, Grade ½): 2 (17) N (%)
White blood cells increased (Weekly, Grade ½): 0 N (%)
ALT increase (Weekly, Grade ¾): 1 (8) N (%)
AST increase (Weekly, Grade ¾): 4 (33) N (%)
Abdominal discomfort (Weekly, Grade ¾): 0 N (%)
Abdominal distention (Weekly, Grade ¾): 0 N (%)
Abdominal pain (Weekly, Grade ¾): 0 N (%)
Albumin decreased (Weekly, Grade ¾): 1 (8) N (%)
Alkaline phosphatase increase (Weekly, Grade ¾): 1 (8) N (%)
Anorexia or decreased appetite (Weekly, Grade ¾): 0 N (%)
Any AE (Weekly, Grade ¾): 10 (48) N (%)
Back pain (Weekly, Grade ¾): 0 N (%)
Constipation (Weekly, Grade ¾): 0 N (%)
Cough (Weekly, Grade ¾): 0 N (%)
Creatinine increased (Weekly, Grade ¾): 1 (8) N (%)
Creatinine phosphokinase increase (Weekly, Grade ¾): 1 (8) N (%)
Dehydration (Weekly, Grade ¾): 2 (17) N (%)
Diarrhea (Weekly, Grade ¾): 0 N (%)
Dizziness (Weekly, Grade ¾): 0 N (%)
Dry mouth (Weekly, Grade ¾): 0 N (%)
Dysgeusia (Weekly, Grade ¾): 0 N (%)
Dyspnea (Weekly, Grade ¾): 1 (8) N (%)
Fatigue/Asthenia (Weekly, Grade ¾): 1 (8) N (%)
Flatulence (Weekly, Grade ¾): 0 N (%)
Headache (Weekly, Grade ¾): 0 N (%)
Hepatic encephalopathy (Weekly, Grade ¾): 1 (8) N (%)
Hyperbilirubinaemia (Weekly, Grade ¾): 2 (17) N (%)
Hyperkalemia (Weekly, Grade ¾): 0 N (%)
Hypocalcemia (Weekly, Grade ¾): 0 N (%)
Hypokalemia (Weekly, Grade ¾): 1 (8) N (%)
Hyponatremia (Weekly, Grade ¾): 0 N (%)
Infection (Weekly, Grade ¾): 1 (8) N (%)
Insomnia (Weekly, Grade ¾): 0 N (%)
Mental status changes (Weekly, Grade ¾): 1 (8) N (%)
Nausea (Weekly, Grade ¾): 0 N (%)
Pain (Weekly, Grade ¾): 0 N (%)
Pancreatitis (Weekly, Grade ¾): 0 N (%)
Peripheral edema (Weekly, Grade ¾): 0 N (%)
Pleural Effusion (Weekly, Grade ¾): 1 (8) N (%)
Pneumatosis intestinalis (Weekly, Grade ¾): 1 (8) N (%)
Pneumonia (Weekly, Grade ¾): 0 N (%)
Proteinurea (Weekly, Grade ¾): 0 N (%)
Pyrexia (Weekly, Grade ¾): 1 (8) N (%)
Renal Failure (Weekly, Grade ¾): 0 N (%)
Sinusitis (Weekly, Grade ¾): 0 N (%)
Small intestinal obstruction (ileus) (Weekly, Grade ¾): 2 (8) N (%)
Troponin I or T increased (Weekly, Grade ¾): 2 (17) N (%)
Urinary Tract Infection (Weekly, Grade ¾): 0 N (%)
Vomiting (Weekly, Grade ¾): 0 N (%)
Weight decreased (Weekly, Grade ¾): 0 N (%)
White blood cells increased (Weekly, Grade ¾): 0 N (%)
Percentage of AEs, particularly Grade 3/4 AEs (pulsatile dosing (BID×3d and Weekly) as compared to continuous daily dosing): reduced percentage of AEs
